# Measurements taken from ChEMBL document CHEMBL1909046, “DrugMatrix in vitro pharmacology data”.
# pIC50, pKi: −log10 of the molar value.
# Columns and labels:
# [1] = target: T1, Muscarinic acetylcholine receptor M4 (Homo sapiens, UniProt P08173); type: cell membranes, CHO-K1, Membrane; conditions: for IC50 / Ki: cho-k1; for pIC50: read-out: IC50; for pKi: read-out: Ki; for all read-outs here: in other assays of this panel Not Active means under 50% inhibition at 10 µM
# T1 sequence (P08173 whole entry): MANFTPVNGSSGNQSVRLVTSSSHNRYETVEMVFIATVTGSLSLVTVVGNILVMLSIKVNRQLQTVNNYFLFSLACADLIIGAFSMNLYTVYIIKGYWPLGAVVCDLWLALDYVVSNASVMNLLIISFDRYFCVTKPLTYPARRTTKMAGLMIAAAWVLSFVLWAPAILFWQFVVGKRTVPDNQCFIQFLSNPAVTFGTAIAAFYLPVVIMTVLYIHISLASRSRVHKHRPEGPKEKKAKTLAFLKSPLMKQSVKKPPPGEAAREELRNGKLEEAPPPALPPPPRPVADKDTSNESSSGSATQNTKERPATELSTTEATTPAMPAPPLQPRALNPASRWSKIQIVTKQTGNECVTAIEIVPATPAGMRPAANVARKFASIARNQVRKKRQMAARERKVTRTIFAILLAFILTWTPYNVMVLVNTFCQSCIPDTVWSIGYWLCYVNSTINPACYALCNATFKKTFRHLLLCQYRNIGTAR
# [2] = DRUGMATRIX: Serotonin (5-Hydroxytryptamine) 5-HT3 radioligand binding (ligand: [3H] GR-65630); type: cell membranes, Membrane; conditions: hek293; Not Active = under 50% inhibition at 10 µM
# [3] = DRUGMATRIX: Phosphodiesterase PDE4 enzyme inhibition (substrate: [3H]cAMP + cAMP); conditions: u-937; Not Active = under 50% inhibition at 10 µM
# [4] = target: 5-hydroxytryptamine receptor 6 (Homo sapiens, UniProt P50406); type: cell membranes, HeLa, Membrane; conditions: for IC50 / Ki: hela; for pIC50: read-out: IC50; for pKi: read-out: Ki; for all read-outs here: in other assays of this panel Not Active means under 50% inhibition at 10 µM
# 5-hydroxytryptamine receptor 6, sequence (P50406 whole entry): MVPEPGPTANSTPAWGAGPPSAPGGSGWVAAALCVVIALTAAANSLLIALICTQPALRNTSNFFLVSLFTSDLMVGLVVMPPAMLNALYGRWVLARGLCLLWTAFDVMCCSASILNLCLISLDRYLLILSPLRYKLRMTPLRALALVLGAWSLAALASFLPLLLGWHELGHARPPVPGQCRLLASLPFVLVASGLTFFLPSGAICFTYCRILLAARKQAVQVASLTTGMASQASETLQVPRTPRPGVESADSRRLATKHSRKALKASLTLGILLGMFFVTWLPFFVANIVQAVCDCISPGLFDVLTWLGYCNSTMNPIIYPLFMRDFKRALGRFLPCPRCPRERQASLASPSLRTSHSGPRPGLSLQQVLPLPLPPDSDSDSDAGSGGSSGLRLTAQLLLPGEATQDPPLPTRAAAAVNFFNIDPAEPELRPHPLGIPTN
# [5] = DRUGMATRIX: Glutamate, Kainate radioligand binding (ligand: [3H] Kainic acid); type: cell membranes, Rattus norvegicus, Wistar, Brain, Membrane; conditions: Not Active = under 50% inhibition at 10 µM
# [6] = target: T2, Cholecystokinin receptor type A (Homo sapiens, UniProt P32238); type: cell membranes, Membrane; conditions: 1321-n1; note: in other assays of this panel Not Active means under 50% inhibition at 10 µM
# T2 sequence (P32238 whole entry): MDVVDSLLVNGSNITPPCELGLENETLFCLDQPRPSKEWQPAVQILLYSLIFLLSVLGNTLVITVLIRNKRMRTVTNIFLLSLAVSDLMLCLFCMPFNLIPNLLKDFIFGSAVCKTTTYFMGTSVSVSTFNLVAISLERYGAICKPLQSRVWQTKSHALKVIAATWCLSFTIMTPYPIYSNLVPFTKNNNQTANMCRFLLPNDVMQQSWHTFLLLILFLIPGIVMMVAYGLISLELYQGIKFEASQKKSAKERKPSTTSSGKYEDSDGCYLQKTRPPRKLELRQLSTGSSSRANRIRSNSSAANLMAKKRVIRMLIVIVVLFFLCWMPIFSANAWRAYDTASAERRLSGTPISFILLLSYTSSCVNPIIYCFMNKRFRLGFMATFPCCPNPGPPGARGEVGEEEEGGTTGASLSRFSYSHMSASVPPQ
# Melanocortin receptor 4 = Melanocortin receptor 4 (Homo sapiens, UniProt P32245); type: cell membranes, Membrane; conditions: hek293; note: in other assays of this panel Not Active means under 50% inhibition at 10 µM
# Melanocortin receptor 4, sequence (P32245 whole entry): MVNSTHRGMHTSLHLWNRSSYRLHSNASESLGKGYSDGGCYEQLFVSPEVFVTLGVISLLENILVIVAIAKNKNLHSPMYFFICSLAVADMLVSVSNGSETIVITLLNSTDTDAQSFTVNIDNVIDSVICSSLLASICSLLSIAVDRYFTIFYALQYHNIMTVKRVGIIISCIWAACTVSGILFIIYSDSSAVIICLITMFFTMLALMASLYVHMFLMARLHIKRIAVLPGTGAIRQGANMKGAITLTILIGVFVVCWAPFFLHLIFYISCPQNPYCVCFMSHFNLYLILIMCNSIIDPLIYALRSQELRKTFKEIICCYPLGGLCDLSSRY
Compound,IC50 [1],IC50 [2],Ki [2],IC50 [3],Ki [3],IC50 [4],IC50 [5],Ki [5],IC50 [6],IC50 (Melanocortin receptor 4),Ki [1],Ki [4],Ki [6],Ki (Melanocortin receptor 4),pIC50 [1],pKi [1],pIC50 [4],pKi [4]
Cc1c(N)nc([C@H](CC(N)=O)NC[C@H](N)C(N)=O)nc1C(=O)N[C@H](C(=O)N[C@H](C)[C@@H](O)[C@H](C)C(=O)N[C@H](C(=O)NCCc1nc(-c2nc(C(=O)NCCC[S+](C)C)cs2)cs1)[C@@H](C)O)[C@@H](O[C@@H]1O[C@@H](CO)[C@@H](O)[C@H](O)[C@@H]1O[C@H]1O[C@H](CO)[C@@H](O)[C@H](OC(N)=O)[C@@H]1O)c1c[nH]cn1.[Br-] [BLEOMYCIN A2],Not Active,Not Active,Not Active,Not Active,Not Active,Not Active,Not Active,Not Active,Not Active,Not Active,–,–,–,–,–,–,–,–
CN(Cc1cc(Br)cc(Br)c1N)C1CCCCC1 [BROMHEXINE],Not Active,Not Active,Not Active,Not Active,Not Active,Not Active,Not Active,Not Active,Not Active,Not Active,–,–,–,–,–,–,–,–
COPPER(II) OXIDE,Not Active,Not Active,Not Active,Not Active,Not Active,Not Active,Not Active,Not Active,Not Active,Not Active,Not Active,Not Active,Not Active,Not Active,–,–,–,–
CC(CN1c2ccccc2Sc2ccccc21)N(C)C (stereo not given) [PROMETHAZINE],–,Not Active,Not Active,Not Active,Not Active,–,Not Active,Not Active,Not Active,Not Active,–,–,–,–,8.12,8.98,5.61,5.95
NC(N)=Nc1nc(CSCCC(N)=NS(N)(=O)=O)cs1 [FAMOTIDINE],Not Active,Not Active,Not Active,Not Active,Not Active,Not Active,Not Active,Not Active,Not Active,Not Active,–,–,–,–,–,–,–,–
CC(C)(c1ccc(O)cc1)c1ccc(O)cc1 [BISPHENOL A],Not Active,Not Active,Not Active,Not Active,Not Active,–,Not Active,Not Active,Not Active,Not Active,–,–,–,–,–,–,5.27,5.60
c1ccc2sc(SSc3nc4ccccc4s3)nc2c1 [BENZOTHIAZYL DISULFIDE],Not Active,Not Active,Not Active,Not Active,Not Active,–,Not Active,Not Active,Not Active,Not Active,–,–,–,–,–,–,5.28,5.61
CC(=O)Nc1ccc2c(c1)Cc1ccccc1-2 [2-ACETYLAMINOFLUORENE],Not Active,Not Active,Not Active,Not Active,Not Active,Not Active,Not Active,Not Active,Not Active,Not Active,–,–,–,–,–,–,–,–
Cc1cc(C(C)(C)C)c(O)c(C)c1CC1=NCCN1 [OXYMETAZOLINE],–,Not Active,Not Active,Not Active,Not Active,–,Not Active,Not Active,Not Active,Not Active,–,–,–,–,5.49,6.34,5.78,6.11
c1ccc(Cn2ccnc2)cc1,Not Active,Not Active,Not Active,Not Active,Not Active,Not Active,Not Active,Not Active,Not Active,Not Active,–,–,–,–,–,–,–,–
Nc1ccc(Cc2ccc(N)cc2)cc1,Not Active,Not Active,Not Active,Not Active,Not Active,Not Active,Not Active,Not Active,Not Active,Not Active,–,–,–,–,–,–,–,–
CC(N)Cc1c[nH]c2ccc(OCc3cccs3)cc12 (stereo not given) [BW-723C86],Not Active,Not Active,Not Active,Not Active,Not Active,–,Not Active,Not Active,Not Active,Not Active,–,–,–,–,–,–,6.19,6.53
CCO [ALCOHOL],Not Active,Not Active,Not Active,Not Active,Not Active,Not Active,Not Active,Not Active,Not Active,Not Active,–,–,–,–,–,–,–,–
CC[C@H]1OC(=O)[C@H](C)[C@@H](O[C@H]2C[C@@](C)(OC)[C@@H](O)[C@H](C)O2)[C@H](C)[C@@H](O[C@@H]2O[C@H](C)C[C@H](N(C)C)[C@H]2O)[C@](C)(O)C[C@@H](C)C(=O)[C@H](C)[C@@H](O)[C@]1(C)O [ERYTHROMYCIN],Not Active,Not Active,Not Active,Not Active,Not Active,Not Active,Not Active,Not Active,Not Active,Not Active,–,–,–,–,–,–,–,–
O=C(O)CNCP(=O)(O)O [GLYPHOSATE],Not Active,Not Active,Not Active,Not Active,Not Active,Not Active,Not Active,Not Active,Not Active,Not Active,–,–,–,–,–,–,–,–
Nc1nc(N)c2nc(CNc3ccc(C(=O)N[C@@H](CCC(=O)O)C(=O)O)cc3)cnc2n1 [AMINOPTERIN],Not Active,Not Active,Not Active,Not Active,Not Active,Not Active,Not Active,Not Active,Not Active,Not Active,–,–,–,–,–,–,–,–
CC(C)Cn1cnc2c(N)nc3ccccc3c21 [IMIQUIMOD],Not Active,Not Active,Not Active,Not Active,Not Active,Not Active,Not Active,Not Active,Not Active,Not Active,–,–,–,–,–,–,–,–
C[N+](C)(C)CCOP(=O)([O-])OC[C@H](O)CO,Not Active,Not Active,Not Active,Not Active,Not Active,Not Active,Not Active,Not Active,Not Active,Not Active,–,–,–,–,–,–,–,–
OC[C@H]1O[C@@H]2O[C@H]3[C@H](O)[C@@H](O)[C@@H](O[C@H]4[C@H](O)[C@@H](O)[C@@H](O[C@H]5[C@H](O)[C@@H](O)[C@@H](O[C@H]6[C@H](O)[C@@H](O)[C@@H](O[C@H]7[C@H](O)[C@@H](O)[C@@H](O[C@H]8[C@H](O)[C@@H](O)[C@@H](O[C@H]1[C@H](O)[C@H]2O)O[C@@H]8CO)O[C@@H]7CO)O[C@@H]6CO)O[C@@H]5CO)O[C@@H]4CO)O[C@@H]3CO [BETADEX],Not Active,Not Active,Not Active,Not Active,Not Active,Not Active,Not Active,Not Active,Not Active,Not Active,–,–,–,–,–,–,–,–
CARBOXYMETHYLCELLULOSE,Not Active,Not Active,Not Active,Not Active,Not Active,Not Active,Not Active,Not Active,Not Active,Not Active,Not Active,Not Active,Not Active,Not Active,–,–,–,–
O=C(O)COC(=O)Cc1ccccc1Nc1c(Cl)cccc1Cl [ACECLOFENAC],Not Active,Not Active,Not Active,Not Active,Not Active,Not Active,Not Active,Not Active,Not Active,Not Active,–,–,–,–,–,–,–,–
COc1ccc(C[C@H](N)C(=O)N[C@H]2[C@@H](O)[C@H](n3cnc4c(N(C)C)ncnc43)O[C@@H]2CO)cc1 [PUROMYCIN],Not Active,Not Active,Not Active,Not Active,Not Active,Not Active,Not Active,Not Active,Not Active,Not Active,–,–,–,–,–,–,–,–
